Reference: US20200131196A1 (Mount Tam Therapeutics, Inc., priority 2017, published 2020)

Key:
SK-N-AS = assay: OncoPanel cell proliferation assay, SK-N-AS; type: cell-based, human; settings: for EC50: read-out: Cell Count EC50; for GI50: read-out: Cell Count GI50
Method: (§1) Cells were grown in RPMI 1640, 10% FBS, 2 mM L-alanyl-L-glutamine, 1 mM Na pyruvate, or a special medium. Cells were seeded into 384-well plates and incubated in a humidified atmosphere of 5% CO2 at 37° C. Compounds were added the day following cell seeding. At the same time, a time zero untreated cell plate was generated. After a 3-day incubation period, cells were fixed and stained to allow fluorescence imaging of nuclei. Compounds (1 mM stock solutions) were serially diluted in half-log steps from the highest test concentration ([…]), and assayed over 10 concentrations with a maximum assay concentration of 0.1% DMSO. Automated fluorescence microscopy was carried out using a Molecular Devices ImageXpress Micro XL high-content imager, and images were collected with a 4× objective. 16-bit TIFF images were acquired and analyzed with MetaXpress 5.1.0.41 software.
(§2) Cell proliferation was measured by the fluorescence intensity of an incorporated nuclear dye. The output is referred to as the relative cell count, where the measured nuclear intensity is transformed to percent of control (POC) using the following formula: […]
(§3) Cellular response parameters were calculated using nonlinear regression to a sigmoidal single-site dose response model:
(§4) EC50 is the test compound concentration at the curve inflection point or half the effective response (parameter C of the fitted curve solution). GI50 is the concentration needed to reduce the observed growth by half (midway between the curve maximum and the time zero value). “Cell Count Activity Area” is an estimate of the integrated area above the curve (Barretina, et al. The Cancer Cell Line Encyclopedia enables predictive modelling of anticancer drug sensitivity. Nature 483: 603-607). […] In rare instances, values <0 or >10 may be observed. […] Curve-fitting, calculations, and report generation was performed using a custom data reduction engine and MathIQ based software (AIM).

SCaBER = assay: OncoPanel cell proliferation assay, SCaBER; type: cell-based, human; settings: for GI50: read-out: Cell Count GI50
Method: as §1, §2, §3, §4

RL95-2 = assay: OncoPanel cell proliferation assay, RL95-2; type: cell-based, human; settings: for GI50: read-out: Cell Count GI50
Method: as §1, §2, §3, §4

NCIH446 = assay: OncoPanel cell proliferation assay, NCIH446; type: cell-based, human; settings: for EC50: NCI-H446, read-out: Cell Count EC50; for GI50: NCI-H446, read-out: Cell Count GI50
Method: as §1, §2, §3, §4

TF-1 = assay: OncoPanel cell proliferation assay, TF-1; type: cell-based, human; settings: for GI50: read-out: Cell Count GI50; for IC50: read-out: Cell Count IC50
Method: as §1, §2, §3, §4

RKOE6 = assay: OncoPanel cell proliferation assay, RKOE6; settings: for EC50 / GI50 / IC50: Homo sapiens; for EC50: RKOE6, read-out: Cell Count EC50; for GI50: RKOE6, read-out: Cell Count GI50; for IC50: RKOE6, read-out: Cell Count IC50; for Cell Count Activity Area: RKOE6
Method: (§6) Cells were seeded into 384-well plates and incubated in a humidified atmosphere of 5% CO2 at 37° C. Compounds were added the day following cell seeding. At the same time, a time zero untreated cell plate was generated. After a 3-day incubation period, cells were fixed and stained to allow fluorescence imaging of nuclei. Compounds (1 mM stock solutions) were serially diluted in half-log steps from the highest test concentration (1 micromol), and assayed over 10 concentrations with a maximum assay concentration of 0.1% DMSO. Automated fluorescence microscopy was carried out using a Molecular Devices ImageXpress Micro XL high-content imager, and images were collected with a 4× objective. 16-bit TIFF images were acquired and analyzed with MetaXpress 5.1.0.41 software.

DMS114 = assay: OncoPanel cell proliferation assay, DMS114; type: cell-based, human; settings: for EC50: DMS-114, read-out: Cell Count EC50; for GI50: DMS-114, read-out: Cell Count GI50
Method: as §1, with “Cells” for “Cells were grown in RPMI 1640, 10% FBS, 2 mM L-alanyl-L-glutamine, 1 mM Na pyruvate, or a special medium. Cells”
as §2, §3
(§5) GI50 is the concentration needed to reduce the observed growth by half (midway between the curve maximum and the time zero value). […] In rare instances, values <0 or >10 may be observed. […] Curve-fitting, calculations, and report generation was performed using a custom data reduction engine and MathIQ based software (AIM).

U2OS = assay: OncoPanel cell proliferation assay, U2OS; type: cell-based, human; settings: for GI50: read-out: Cell Count GI50
Method: as §1, with “Cells” for “Cells were grown in RPMI 1640, 10% FBS, 2 mM L-alanyl-L-glutamine, 1 mM Na pyruvate, or a special medium. Cells”
as §2, §3, §5

AsPC-1 = assay: OncoPanel cell proliferation assay, AsPC-1; settings: for Cell Count Activity Area: AsPC-1
Method: as §6

U-87 MG = assay: OncoPanel cell proliferation assay, U-87 MG; type: cell-based, human; settings: for GI50: read-out: Cell Count GI50
Method: as §1, §2, §3, §4

G-402 = assay: OncoPanel cell proliferation assay, G-402; type: cell-based, human; settings: for GI50: read-out: Cell Count GI50
Method: as §1, §2, §3, §4

SK-UT-1 = assay: OncoPanel cell proliferation assay, SK-UT-1; settings: for EC50: SK-UT-1, read-out: Cell Count EC50; for GI50: SK-UT-1, read-out: Cell Count GI50; for Cell Count Activity Area: SK-UT-1
Method: as §6

[1] = Homo sapiens, read-out: Cell Count IC50
[2] = Homo sapiens, read-out: Cell Count EC50

`CO[C@H]1C[C@@H]2CC[C@@H](C)[C@@](O)(O2)C(=O)C(=O)N2CCCC[C@H]2C(=O)O[C@H]([C@H](C)C[C@@H]2CC[C@@H](O)[C@H](OC)C2)CC(=O)[C@H](C)/C=C(\C)[C@@H](O)[C@@H](OC)C(=O)[C@H](C)C[C@H](C)/C=C/C=C/C=C/1C` [Rapamycin, reference compound] was tested, and the “Cell Count Activity Area” value (SK-N-AS) was 3.58, the EC50 (SK-N-AS; Homo sapiens) was 0.231 nM and the GI50 (SK-N-AS; Homo sapiens) was 0.432 nM. For the same compound, the IC50 (SK-N-AS; [1]) was > 1000 nM, the “Cell Count Activity Area” value (SCaBER) was 5.25 and the EC50 (SCaBER; [2]) was 0.0377 nM. The GI50 (SCaBER; Homo sapiens) was 0.158 nM, the IC50 (SCaBER; [1]) was 0.321 nM and the “Cell Count Activity Area” value (RL95-2) was 4.24. For the same compound, the EC50 (RL95-2; [2]) was 0.0705 nM, the GI50 (RL95-2; Homo sapiens) was 0.13 nM and the IC50 (RL95-2; [1]) was > 1000 nM. For the same compound, the “Cell Count Activity Area” value (NCIH446) was 1.69, the EC50 (NCIH446; Homo sapiens) was > 1000 nM and the GI50 (NCIH446; Homo sapiens) was 44.4 nM. The IC50 (NCIH446; Homo sapiens, NCI-H446, read-out: Cell Count IC50) was > 1000 nM, the “Cell Count Activity Area” value (TF-1) was 1.52 and the EC50 (TF-1; [2]) was > 1000 nM. For the same compound, the GI50 (TF-1; Homo sapiens) was > 1000 nM, the IC50 (TF-1; Homo sapiens) was > 1000 nM and the EC50 (RKOE6) was 0.0835 nM. For the same compound, the GI50 (RKOE6) was 0.356 nM, the IC50 (RKOE6) was 1.06 nM and the “Cell Count Activity Area” value (RKOE6) was 4.61. The “Cell Count Activity Area” value (DMS114) was 4.14, the EC50 (DMS114; Homo sapiens) was 0.0747 nM and the GI50 (DMS114; Homo sapiens) was 0.0478 nM. The IC50 (DMS114; Homo sapiens, DMS-114, read-out: Cell Count IC50) was > 1000 nM, the “Cell Count Activity Area” value (U2OS) was 3.04 and the EC50 (U2OS; [2]) was 0.65 nM. For the same compound, the GI50 (U2OS; Homo sapiens) was 2.54 nM, the IC50 (U2OS; [1]) was > 1000 nM and the “Cell Count Activity Area” value (AsPC-1) was 1.48. The EC50 (AsPC-1; Homo sapiens, ASPC1, read-out: Cell Count EC50) was > 1000 nM, the GI50 (AsPC-1; Homo sapiens, ASPC1, read-out: Cell Count GI50) was > 1000 nM and the IC50 (AsPC-1; Homo sapiens, ASPC1, read-out: Cell Count IC50) was > 1000 nM. For the same compound, the “Cell Count Activity Area” value (U-87 MG) was 3.79, the EC50 (U-87 MG; [2]) was 0.104 nM and the GI50 (U-87 MG; Homo sapiens) was 0.384 nM. For the same compound, the IC50 (U-87 MG; [1]) was > 1000 nM, the “Cell Count Activity Area” value (G-402) was 4.68 and the EC50 (G-402; [2]) was 0.111 nM. For the same compound, the GI50 (G-402; Homo sapiens) was 0.182 nM, the IC50 (G-402; [1]) was 0.334 nM and the EC50 (SK-UT-1; Homo sapiens) was 0.2 nM. The GI50 (SK-UT-1; Homo sapiens) was > 1000 nM, the IC50 (SK-UT-1; Homo sapiens, SK-UT-1, read-out: Cell Count IC50) was > 1000 nM and the “Cell Count Activity Area” value (SK-UT-1) was 3.23.

`CN[C@@H]1C[C@H]2O[C@@](C)([C@@H]1OC)n1c3ccccc3c3c4c(c5c6ccccc6n2c5c31)C(=O)NC4` [Staurosporine, reference compound] was tested, and the “Cell Count Activity Area” value (SK-N-AS) was 4.83, the EC50 (SK-N-AS; Homo sapiens) was 1.7 nM and the GI50 (SK-N-AS; Homo sapiens) was 1.27 nM. For the same compound, the “Cell Count Activity Area” value (SCaBER) was 6.03, the GI50 (SCaBER; Homo sapiens) was 0.474 nM and the “Cell Count Activity Area” value (RL95-2) was 3.87. The GI50 (RL95-2; Homo sapiens) was 6.83 nM, the “Cell Count Activity Area” value (NCIH446) was 2.81 and the EC50 (NCIH446; Homo sapiens) was 32.6 nM. The GI50 (NCIH446; Homo sapiens) was 16.8 nM, the “Cell Count Activity Area” value (TF-1) was 3.31 and the GI50 (TF-1; Homo sapiens) was 10.9 nM. For the same compound, the IC50 (TF-1; Homo sapiens) was 11.9 nM, the EC50 (RKOE6) was 16.8 nM and the GI50 (RKOE6) was 13.2 nM. For the same compound, the IC50 (RKOE6) was 17.9 nM, the “Cell Count Activity Area” value (RKOE6) was 3.96 and the EC50 (DMS114; Homo sapiens) was 21 nM. The GI50 (DMS114; Homo sapiens) was 3.35 nM, the GI50 (U2OS; Homo sapiens) was 2.63 nM and the “Cell Count Activity Area” value (AsPC-1) was 3.28. For the same compound, the “Cell Count Activity Area” value (U-87 MG) was 3.25, the GI50 (U-87 MG; Homo sapiens) was 0.836 nM and the “Cell Count Activity Area” value (G-402) was 5.93. For the same compound, the GI50 (G-402; Homo sapiens) was 0.664 nM, the EC50 (SK-UT-1; Homo sapiens) was 21.8 nM and the GI50 (SK-UT-1; Homo sapiens) was 19.5 nM. The “Cell Count Activity Area” value (SK-UT-1) was 3.46.
